Test results published in US20250339520A1, “COMPOSITIONS AND METHODS FOR USE IN KRAS-TARGETED THERAPIES FOR THE TREATMENT OF CANCER” (RUTGERS, THE STATE UNIVERSITY OF NEW JERSEY, priority 2024, published 2025).

Tests used:
[1] = tested on: iKPC PDAC cells; assay: Cancer spheroid formation, TGFβ-driven KRAS* bypass; type: cell-based, mouse
Experimental: (§1) Human cell lines MIA PaCa-2 and Panc 04.03 were purchased from the American Type Culture Collection (ATCC) and cultured in DMEM supplemented with 10% FBS and RPMI supplemented with 15% FBS and 20 Units/ml human recombinant insulin, respectively. Mouse PDAC cells were isolated from spontaneous tumors developed in iKPC or KPC mice. KPC cell lines were sustained in RPMI (Gibco) with 10% FBS (Gibco), while iKPC cell lines were cultured in RPMI with 10% Tet-approved FBS (Gibco) and doxycycline (VWR, […]). Escaper tumor cell lines were maintained in RPMI with 10% Tet-approved FBS (Gibco). For cancer spheroid culture, cells were mixed with 50 L growth factor-reduced Matrigel (Corning) and plated in 24-well low-attachment cell culture plates (Nunc). Medium was added on top of the solidified Matrigel. We monitored both spheroid size and number for spheroid growth assays. For counting spheroid numbers, we used a cut-off of 100 m in diameter or specified, depending on the time and cell type. For measuring spheroid size, ImageJ was used. Monthly mycoplasma detection (Lonza) was performed to ensure the absence of contamination.

[2] = tested on: KPC PDAC cells; assay: Orthotopically transplanted KPC PDAC model with pancreatitis induction; type: in vivo, mouse
Experimental: (§2) For allograft or xenograft tumor models, human or mouse PDAC cells were transplanted orthotopically or subcutaneously into recipient C57BL/6 or nude mice at a concentration of 500,000 cells per injection, as specified in the figures. The cells were resuspended in Opti-MEM and combined with growth factor-reduced Matrigel (Corning) at a 1:1 ratio.
(§3) For bioluminescence imaging, each mouse received a 100 L injection of D-Luciferin (15 mg/mL, i.p., Perkin Elmer). After a 10-minute interval, mice were imaged using the IVIS Spectrum Imaging System, and images were acquired and analyzed using Living Image 4.3 software.

[3] = tested on: KPC [1860], Mia PaCa-2, and Panc 04.03 PDAC cells; assay: Cancer spheroid formation under KRASi; type: cell-based, mouse and human
Experimental: as §1

[4] = tested on: iKPC spheroids; assay: RNA-seq / GSEA in TGFβ-treated, KRAS*-depleted iKPC spheroids; type: cell-based, mouse; conditions: inhibition of NFAT5 by KRN2
Experimental: (§4) RNA extraction from 2-D or 3-D cultured cell samples was conducted using the RNA Extraction Kit from Qiagen. Matrigel-based 3-D cells were isolated using Cell Recovery Solution from Corning. RNA concentration was assessed using NanoDrop 2000. The RNA samples were either sent for RNA-seq analysis to the Genomic Center at Rutgers or Genewiz (Azenta), or reverse transcribed for qRT-PCR analysis. The preparation of cDNA utilized 5× All-In-One RT MasterMix from Applied Biological Materials, and the PCR reactions were prepared with SYBR Green PCR Master Mix from Applied Biosystems or Bio-Rad. qRT-PCR was executed on the CFX Opus 96 (Bio-Rad), with statistical analysis conducted using GraphPad Prism. For mRNA sequencing, the parameters were NGS-75 nt Paired End, utilizing the Illumina Next Generation Sequencing instrument.
GSEA was performed using GSEA software (4.3.2).

[5] = tested on: KPC PDAC cells; assay: KPC transplanted (allograft) model, KRN2 and MRTX1133; type: in vivo
Experimental: as §2, §3

[6] = tested on: NFAT5; assay: Western blot of NFAT5 expression under KRN2; type: cell-based; conditions: PDAC cells, dose-dependent western blot
Experimental: (§5) Antibody information can be found in Table 2. Western blot analysis, IP, co-IP, and IHC staining were conducted following standard protocols. Human TMA slides were purchased from Biomax. Cell fractionation and Masson's Trichrome Staining were carried out using commercial kits, adhering to manufacturers' protocols. MS analysis of proteins pulled down by endogenous SMAD2, SMAD3, SMAD4, NFAT5, and IgG was performed by the Proteomics Core Facility at Rutgers New Jersey Medical School. Specifically, IP samples were subjected to SDS-PAGE separation. Each sample's gel lane was excised for in-gel trypsin digestion, and the resulting peptides were analyzed using LC-MS/MS on an Orbitrap Fusion Lumos Tribrid mass spectrometer coupled with the Ultimate 3000 nano-LC system (Thermo Scientific). MS/MS spectra were searched against the UniProt mouse database (55,336 sequences, downloaded 8/30/2021) using the Sequest search engine through the Proteome Discoverer platform (version 2.4) with a false discovery rate less than 1% for both proteins and peptides. Protein abundance ratios were determined using the Label-Free Quantitation (LFQ) method.

[7] = tested on: AsPC-1; assay: Cancer spheroid formation under KRASi, SMAD4-deficient cells; type: cell-based, human; conditions: for Response of spheroid formation to TGFβ1 or TGFβRi: SMAD4-deficient, under G12Di MRTX1133, TGFβ 0.5 ng/ml, SB505124 1 μM
[8] = tested on: MIA PaCa-2; assay: MIA PaCa-2 orthotopic xenograft model; type: in vivo
Source text: as §2

[9] = tested on: KRAS*-independent escaper tumor cells E725; assay: Escaper tumor growth, E725 cells subcutaneous in nude mice; type: in vivo, mouse; conditions: KRN2 3 mg/kg QD vs vehicle; day 28
Source text: as §2

[10] = tested on: iKPC spheroids; assay: Western blot of S100A4, NFAT5 and EMT TFs in iKPC cells/spheroids; type: cell-based, mouse; conditions: TGFβ
Experimental: as §5

[11] = tested on: iKPC PDAC cells; assay: Gene expression changes in iKPC cells post TGFβ treatment; type: cell-based, mouse
Experimental: as §4

[12] = tested on: S100a4 promoter; assay: Luciferase reporter assay under the S100a4 promoter; type: cell-based, mouse; conditions: KRAS*-depleted iKPC PDAC cells
Experimental: Mouse S100a4 promoter was cloned into pGL4.12[iluc2CP] vector (Promega). Renilla luciferase vector (Promega) was used as the internal control. pGL4.12 vector and Renilla luciferase vector were co-transfected into iKPC PDAC cells using Lipofectamine 2000 (Invitrogen). After 24 hours, the medium was replaced, and cells were subjected to various treatments for an additional 24 hours. Subsequently, cells were collected for luciferase reporter assay using the Dual-Luciferase Reporter Assay Kit (Promega) according to the manufacturer's instructions. The firefly luciferase signal was normalized to Renilla luciferase prior to comparison among different treatment groups.

[13] = tested on: KRAS*-independent escaper tumor cell lines from iKPC mice; assay: KRAS*-independent escaper spheroid growth; type: cell-based, mouse; conditions: SB505124 3 μM; hybrid or QM-like phenotype
Experimental: as §1

[14] = tested on: iKPC mice; assay: Pancreatitis-induced spontaneous tumor relapse in iKPC mice; type: in vivo, mouse; conditions: CAE 100 μg/kg after dox withdrawal (KRAS* off); less than or around a year after treatment; control mice remained tumor-free
Experimental: The iKPC and KPC PDAC mouse models were established and described previously^7,19. They were bred in pure C57BL/6 background. Doxycycline (dox) water (2 mg/mL, ad libitum) was administrated at 4-6 weeks of mouse age to activate transgenic KRAS^G12D expression in iKPC mice. The C57BL/6 mice and nude mice of both sexes were purchased from the Jackson Laboratory and employed to ensure matching sexes of the cell lines.
For the induction of spontaneous tumor relapse in iKPC mice, the withdrawal of dox water was performed to cease KRAS* expression when the tumor diameter reached approximately 1 cm.

For “recombinant S100A4 protein: recombinant mouse S100A4 (R&D) added to the culture media”, the “Rescue of TGFβ-induced, KRAS*-independent cancer spheroid growth” value ([1]; added to culture media after NFAT5 inhibition (KRN2 1 μM) or knockdown of Nfat5 or S100a4) was “rescued TGFβ-induced, KRAS*-independent cancer spheroid growth”.

With `COc1ccc2c(Cc3ccccc3F)c3[n+](cc2c1OC)CCc1cc2c(cc1-3)OCO2.[Cl-]` [KRN2] the “Chronic pancreatitis-induced KRASi resistance” value ([2]; MRTX1133 10 mg/kg BID + CAE 100 μg/kg + KRN2 3 mg/kg QD, KPC 1860, day 21) was “blockage of chronic pancreatitis-induced KRASi resistance”, the “KRASi persistent cancer spheroid formation” value ([3]; KRN2 1 μM + MRTX1133 0.03 μM (KPC), KRN2 0.3 μM + ARS-1620 5 μM (MIA PaCa-2)) was “attenuation of KRASi persistent cancer spheroid formation” and the “Gene sets upregulated (GSEA)” value [4] was “upregulating genes associated with fatty acid metabolism and mTORC1 signaling”. The “Gene signatures suppressed (GSEA)” value [4] was “suppressed EMT and NFxB gene signatures”, the “Mouse allograft tumor growth” value ([5]; KRN2 3 mg/kg QD in combination with MRTX1133 10 mg/kg QD) was “inhibition of mouse allograft tumor growth in combination with KRASi” and the Mouse survival ([5]; KRN2 monotherapy 3 mg/kg QD, immune-competent mice) was “prolonged mouse survival”. For the same compound, the “Tumor differentiation (H&E)” value ([5]; KRN2 vs vehicle control) was “induced tumor differentiation”, the “Systemic toxicity (mouse body weight)” value ([5]; allograft model, during treatment) was “minimal systemic toxicities” and the “Concentration at which Nfat5 expression is suppressed” value [6] was “higher than 0.3 μM”. The “KRASi persistent cancer spheroid formation, SMAD4-deficient cells” value ([7]; KRN2 0.3 μM + MRTX1133 0.3 μM) was “excluding SMAD4-deficient cancer spheroid formation”, the “TGFβ-driven KRAS* bypass (spheroid formation)” value ([1]; KRN2 1 μM, TGFβ 0.5 ng/ml, three iKPC cell lines) was “impairment of TGFβ-driven KRAS* bypass” and the “Human xenograft tumor growth” value ([8]; KRN2 3 mg/kg QD with G12Ci MRTX849 100 mg/kg QD, day 28) was “reduction of human xenograft tumor growth cooperatively with KRASi”. For the same compound, the “Systemic toxicity (mouse body weight)” value ([8]; xenograft model, during treatment) was “minimal systemic toxicities” and the “Escaper tumor growth in vivo” value [9] was “restriction of escaper tumor growth in vivo”.

In the case of `C#Cc1c(F)ccc2cc(O)cc(-c3ncc4c(N5CC6CCC(C5)N6)nc(OC[C@@]56CCCN5C[C@H](F)C6)nc4c3F)c12` [MRTX1133], the “Tumor growth under G12Di with pancreatitis induction” value ([2]; MRTX1133 10 mg/kg BID + CAE 100 μg/kg) is reported as “leads to resistance” and the “Tumor growth, G12Di vs vehicle” value ([2]; MRTX1133 10 mg/kg, BID) is reported as “significantly reduces tumor growth”.

For “TGFβ1: recombinant human and mouse TGFβ1 (Peprotech)”, the “Formation of cancer spheroids resistant to KRASi” value ([3]; TGFβ 0.5 ng/ml with MRTX1133 or ARS-1620, cells with intact TGFβ pathway) was “actively promoted the formation of cancer spheroids resistant to KRASi”, the NFAT5 protein level [10] was “upregulates NFAT5” and the S100A4 protein level ([10]; cancer spheroids) was “upregulation of S100A4”. The Ccl2 expression elevation ([11]; TGFβ treatment, KRAS*-depleted iKPC PDAC cells) was “more than 700 fold”, the S100a4 expression ([11]; TGFβ, KRAS*-depleted iKPC spheroids) was “upregulated” and the “Response of spheroid formation to TGFβ1 or TGFβRi” value [7] was “did not exhibit a response”. The “KRAS* bypass in spheroid assays” value ([1]; TGFβ1 treatment, KRAS* off) was “efficiently promoted several iKPC PDAC cell lines to bypass KRAS*”, the “KRAS* bypass in spheroid assays, iKPC cell lines 251, 276” value ([1]; TGFβ1 treatment, cell lines with higher Cdkn2a and Cdkn2b expression) was “unable to bypass KRAS*” and the “S100a4 promoter luciferase activity under TGFβ” value [12] was “activated S100a expression”.

For `Cc1cccc(-c2[nH]c(C(C)(C)C)nc2-c2ccc3c(c2)OCO3)n1` [SB505124], the “Cancer spheroid formation, TGFβRi combined with KRASi” value ([3]; SB505124 3 μM with MRTX1133 (KPC, Panc 04.03) or ARS-1620 (MIA PaCa-2)) was “eradication of cancer spheroids”, the “Sensitivity of escaper spheroids to TGFβRi” value [13] was “hypersensitivity” and the “Response of spheroid formation to TGFβ1 or TGFβRi” value [7] was “did not exhibit a response”.

In the case of caerulein, the “Tumor growth, CAE vs vehicle control” value ([2]; CAE 100 μg/kg, C57BL/6 mice, BLI, tumor weight, tumor volume) is reported as “promotes KPC PDAC tumor growth”, the “Tumor morphology (H&E)” value ([2]; CAE;G12Di-treated tumors relative to vehicle;G12Di controls) is reported as “lost the ductal-like phenotype and were more undifferentiated” and the “Tumor progression, CAE;G12Di vs vehicle;G12Di” value ([2]; independent study, MRTX1133 10 mg/kg BID, CAE 100 μg/kg) is reported as “significantly faster tumor progression”. For the same compound, the “SMAD3 phosphorylation and EMT transcription factors in collected tumors (western blot)” value ([2]; tumors under MRTX1133) was “induced SMAD3 phosphorylation and the upregulation of EMT transcription factors (TFs) such as SNAI2, ZEB1, and ZEB2” and the “CAE-treated mice that developed escaper tumors” value [14] was “at least 36%”.
